Laboratory results reported in patent publication US11077036B2, “Lactam solubility” (Conopco, Inc., priority 2015, dated 2021).

Experiment: Lactam solubility in water or water + ethyl lactate (48 hours agitation, filtration, HPLC quantification)
Type: physicochemical
Conditions: for Mean Lactam Level in Solution: 48 hours agitation
Description: The following example uses, without limitation, 4-(4-chlorophenyl)-5-methylene-pyrrol-2-one and ethyl lactate.
Excess solid lactam (˜3 mg) was placed in a Whatman® Mini Uniprep sample vial, fitted with a 0.45 μm nylon filter. Water or water+ethyl lactate (500 μL) was added the mixture shaken and tapped briefly to initially disperse the solid and the mixture then agitated for 48 hours using a plate shaker fitted with a vial holder (see image below). After 48 hours, the solid was removed from the system by pressing down the plunger with integral filter on the vial (see image below). This removes the solid and provides filtered solution within the inner chamber which is then ready for analysis.
The level of lactam dissolved in solution was quantified using HPLC analysis. Samples were analysed on an Agilent 1200® series HPLC fitted with a Thermo Hypersil® Gold C18 column (15×2.1×3 μm), isocratic elution with 60/40 methanol/water (+0.1% Formic Acid), 0.4 mL/min flow rate, using a DAD detector at 285 nm. 4-(4-chlorophenyl)-5-methylene-pyrrol-2-one has a retention time of ˜2.8 minutes.
The absolute level of lactam in solution is measured and reported as an increase in solubility of lactam relative to water alone.

[1] = 0 % ethyl lactate in water (water alone)

- Solubility Increase vs water alone [1]: 1.00
- Mean Lactam Level in Solution [1]: 5.7 ppm
- Solubility Increase vs water alone (0.5 % ethyl lactate in water): 1.21
- Mean Lactam Level in Solution (0.5 % ethyl lactate in water): 6.9 ppm
- Solubility Increase vs water alone (1 % ethyl lactate in water): 1.21
- Mean Lactam Level in Solution (1 % ethyl lactate in water): 6.9 ppm
- Solubility Increase vs water alone (2 % ethyl lactate in water): 1.99
- Mean Lactam Level in Solution (2 % ethyl lactate in water): 11.3 ppm
- Solubility Increase vs water alone (5 % ethyl lactate in water): 4.63
- Mean Lactam Level in Solution (5 % ethyl lactate in water): 26.4 ppm
- Solubility Increase vs water alone (10 % ethyl lactate in water): 10.57
- Mean Lactam Level in Solution (10 % ethyl lactate in water): 60.2 ppm
SMILES: C=C1NC(=O)C=C1c1ccc(Cl)cc1 [4-(4-chlorophenyl)-5-methylene-pyrrol-2-one]
